Experimental findings from ChEMBL document CHEMBL1124501, “Novel cytotoxic compounds from the ascidian Lissoclinum bistratum” (J Med Chem, 1989) are described below.

Molecules are shown by their SMILES. ≈ marks a conversion by molar mass, not a printed value.

Format in all cases: functional, cell-based
For test [1], the system named is MRC5CV1. As to the kind of experiment: Cytotoxicity evaluated by incorporation of [methyl-3H]thymidine into human MRC5CV1, a control fibroblast cell line.
The test system of test [2] is T-24. Nature of the test: Cytotoxicity evaluated by incorporation of [methyl-3H]thymidine into human T24, a bladder carcinoma cell line.
The test system of test [3] is T-24. As to the kind of experiment: Cytotoxicity evaluated by incorporation of [methyl-3H]thymidine into human T24, a bladder carcinoma cell line.
In test [4] the test system is P388. As to the kind of experiment: Cytotoxicity in vitro against P388 cell line. The conditions noted are these: Mus musculus.

For `CC(C)[C@@H]1NC(=O)C2CSC(=N2)[C@H](Cc2ccccc2)NC(=O)C2CSC(=N2)[C@@H](C)NC(=O)[C@H]2N=C1O[C@@H]2C` [BISTRATAMIDE A], the figures for the IC50 in test [1] and in test [2] were 50 µg/mL (≈ 87.6 µM) and 0.07 µg/mL (≈ 0.123 µM), respectively. As to `CC(C)[C@@H]1NC(=O)c2csc(n2)[C@H](Cc2ccccc2)NC(=O)C2CSC(=N2)[C@@H](C)NC(=O)[C@H]2N=C1O[C@@H]2C` [BISTRATAMIDE B], the IC50 in test [3] was 0.09 µg/mL (≈ 0.158 µM); in test [1], greater than 100 µg/mL. For `C/C=C/C(=O)CC1CCC2(O)CC(C)C(CCCNC(=O)C(C)C3CNC(=O)CC(O1)C(C)CCCCC(CCC(C)/C=C(\C)C(C)O)O3)O2` (centres undefined) [BISTRATENE A], the IC50 in test [1] and in test [2] was 0.07 µg/mL (≈ 0.0993 µM) throughout.

On to `C/C=C/C(=O)CC1CCC2(O)CC(C)C(CCCNC(=O)C(C)C3CNC(=O)CC(O1)C(C)CCCCC(CCC(C)/C=C(\C)C(C)OC(C)=O)O3)O2` (centres undefined) [BISTRATENE B], for which the IC50 in test [1] and in test [2] was 0.09 µg/mL (≈ 0.12 µM) each time. In turn, `CCC/C=C/C=C/C(=O)O[C@H]1/C(=C/C(=O)OC)C[C@H]2CC([C@@H](C)O)OC(=O)C[C@H](O)C[C@@H]3C[C@H](OC(C)=O)C(C)(C)[C@](O)(C[C@@H]4C/C(=C/C(=O)OC)C[C@H](/C=C/C(C)(C)[C@]1(O)O2)O4)O3` (some centres undefined) [BRYOSTATINS] returned an IC50 in test [4] of 0.89 µg/mL (≈ 0.983 µM).

As usually defined, the IC50 is the concentration that inhibits the measured activity by half.
